The text below walks through data of US20230364091A1, “COMPOSITIONS AND METHODS FOR TREATING CANCER” (The Regents of the University of California, priority 2020, published 2023).

A short description of data set [1]: Brain penetration in non-tumor bearing mice. Type of data set: in vivo. The note with it: mouse, brain and plasma, unbound ratio of drug in brain to plasma. From the text:
Disclosed in table 5 Brain to plasma percentages and unbound ratios of drugs in brain to plasma of indicated drugs in non-tumor bearing mice

Data set [2] deals with PC-9 cells (EGFR exon 19 deletion). The data set is described as follows: Cellular IC50, Cell Titer Glo viability, PC-9. Particulars: Homo sapiens, 72 hours. Type of data set: cell-based. On the procedure: (§1) PC-9 cells were purchased from Sigma, and HCC827 cells were purchased from ATCC. Each cell line was maintained at ≤passage 10 at 37° C. in a humidified incubator with 5% CO2. Cells were plated in 96-well optical bottom plates (Corning #3903; Corning, NY) at a cell density of 5,000 cells/well, allowed to adhere for minimally 16 hours, and subsequently treated with the test compounds using an 11-point serial dilution (1:3) in duplicate using an HP D300 digital 4 dispenser (Tecan, Morrisville, NC). 72 hours after addition of the test compounds, Cell Titer Glo reagent (Promega, Madison, WI) was added to the plate according to manufacturer's protocol and luminescence measured using a Spectramax M5 (Molecular Devices, San Jose, CA). IC50s were calculated using the 4-parameter variable slope curve fit using the equation below where, Y and X are variables plotted, Top and Bottom are plateaus in the units of the Y axis, Log IC50 is the Log transformation of the IC50 value and HillSlope is the Hill Slope for the curve and describes curve steepness (GraphPad Prism, version 6.07, GraphPad Software, Inc.). Y=Bottom+(Top−Bottom)/(1+10((Log IC50−X)*HillSlope)))
(In general: ATP-based viability assays read luminescence as a measure of living cells.)

Data set [3] deals with HCC827 cells (EGFR exon 19 deletion). The data set is described as follows: Cellular IC50, Cell Titer Glo viability, HCC827. Type of data set: cell-based. Particulars: Homo sapiens, 72 hours. Here is the method:
as §1

For `Fc1c(Br)cccc1Nc1ncnc2cc3c(cc12)OC(CN1CCOCC1)CO3` (racemic) [JGK063, (±)-N-(3-Bromo-2-fluorophenyl)-7-[(morpholin-4-yl)methyl]-7,8-dihydro[1,4]dioxino[2,3-g]quinazolin-4-amine], the Kp uu in data set [1] was determined as 0.341.

In the case of `CN(C)CC1COc2cc3ncnc(Nc4cccc(Br)c4F)c3cc2O1` (racemic) [JGK066, (±)-N-(3-Bromo-2-fluorophenyl)-7-[(dimethylamino)methyl]-7,8-dihydro[1,4]dioxino[2,3-g]quinazolin-4-amine], the Kp uu in data set [1] stood at 1.18.

As for `CN1CCN(CC2COc3cc4ncnc(Nc5cccc(Br)c5F)c4cc3O2)CC1` (racemic) [JGK068, (±)-N-(3-Bromo-2-fluorophenyl)-7-[(4-methylpiperazin-1-yl)methyl]-7,8-dihydro[1,4]dioxino[2,3-g]quinazolin-4-amine], the Kp uu in data set [1] turned out to be 1.18.

As for `Fc1c(Br)cccc1Nc1ncnc2cc3c(cc12)O[C@@H](CN1CCOCC1)CO3` [JCN063S, (S)—N-(3-bromo-2-fluorophenyl)-7-(morpholinomethyl)-7,8-dihydro-[1,4]dioxino[2,3-g]quinazolin-4-amine], the results for the IC50 in data set [2] and in data set [3] were 21.7 nM and 12.7 nM, respectively.

Regarding `Fc1c(Br)cccc1Nc1ncnc2cc3c(cc12)O[C@@H](CN1CCCCC1)CO3` [JCN065S, (S)—N-(3-bromo-2-fluorophenyl)-7-(piperidin-1-ylmethyl)-7,8-dihydro-[1,4]dioxino[2,3-g]quinazolin-4-amine], the 50% inhibitory concentration (IC50) was determined as 53.9 nM in data set [2] and 49.5 nM in data set [3].

In the case of `Fc1c(Br)cccc1Nc1ncnc2cc3c(cc12)O[C@@H](CN1CCCC1)CO3` [JCN067S, (S)—N-(3-bromo-2-fluorophenyl)-7-(pyrrolidin-1-ylmethyl)-7,8-dihydro-[1,4]dioxino[2,3-g]quinazolin-4-amine], the figures for the IC50 in data set [2] and in data set [3] were 36.2 nM and 25.7 nM, respectively.

For the compound `CN1CCN(C[C@H]2COc3cc4ncnc(Nc5cccc(Br)c5F)c4cc3O2)CC1` [JGK068S, (7S)—N-(3-Bromo-2-fluorophenyl)-7-[(4-methylpiperazin-1-yl)methyl]-7,8-dihydro[1,4]dioxino [2,3-g]quinazolin-4-amine], the Kp uu in data set [1] worked out at 1.18.

Take `Fc1c(Br)cccc1Nc1ncnc2cc3c(cc12)O[C@@H](CN1CCNCC1)CO3` [JGK083S, (7S)—N-(3-Bromo-2-fluorophenyl)-7-[(piperazin-1-yl)methyl]-7,8-dihydro[1,4]dioxino [2,3-g]quinazolin-4-amine]: the Kp uu in data set [1] came to 0.798.

By IC50 is commonly meant the concentration at which inhibition is half-maximal. A low value points to inhibition by little substance.
